Source: patent US20210196730A1, “COMPOUND AND USE THEREOF” (priority 2018, published 2021)
Like-named read-outs stand apart in the source and are kept apart here.

What was measured:
[1] = test system: pancreatic cancer cell lines MIA PaCa-2, PANC-1, SW1990, and SW1990-GEM; assay: Cytotoxicity experiment of Callide (DNA assay method); type: cell-based; conditions: 24 h
Procedure: Experimental materials: four pancreatic cancer cell lines, i.e., MIA PaCa-2, PANC-1, SW1990, and SW1990-GEM. Whole cell culture medium, microplate reader
Experimental Method: DNA Assay Method
Experimental process: pancreatic cancer cells were cultured, digested, resuspended into a cell suspension with medium, and seeded into 96-well plates, with 4000 cells per well. The experimental components are […], i.e., TP group, Cal group, TP and Cal physical mixed group (TP/Cal), Callide-DMSO without esterase group (Callide without PLE), Callide-DMSO with 10 U esterase group (Callide with 10 U PLE), Callide^NP without esterase group (Callide^NP without PLE), and Callide^NP with 10 U esterase group (Callide^NP with 10 U PLE). For each group, 8 concentrations of 5 nM, 10 nM, 20 nM, 40 nM, 80 nM, 100 nM, 200 nM, and 400 nM were prepared, and each concentration was repeated in six wells. After 24 h of administration, the drug solution was removed by suction, washed with PBS twice, added […], analyzed by a microplate reader, and plotted a relative survival rate curve of cells to calculate an IC50 of each compound.

[2] = test system: pancreatic stellate cells and pancreatic cancer cells; assay: Smooth actin and collagen in co-cultured pancreatic stellate cells and pancreatic cancer cells (immunofluorescence); type: cell-based, KPC mice; conditions: co-culture 1:1, 24 hours; TP 10 nM, Cal 100 nM, TP/Cal 10/100 nM, Callide^NP 100 nM
Description: (§1) Experimental materials: pancreatic stellate cells and pancreatic cancer cells cultured in transgenic mice. Among them, pancreatic cancer cells were transfected with luciferase gene by lentivirus transfection method.
(§2) Experimental method: in vitro co-culture, immunofluorescence histochemical analysis
(§3) Experimental process: the tumor tissues were taken from KPC mice that spontaneously developed with tumors, and the tumor tissues were dissected, and primary pancreatic stellate cells and pancreatic cancer cells were isolated by physical in vitro disruption and enzymatic hydrolysis, and cultured.
Pancreatic stellate cells and pancreatic cancer cells were cultured in a 12-well plate at a ratio of 1:1, with a total of 100,000 cells per well, using TP (10 nM), Cal (100 nM), treated with TP/Cal (10/100 nM), and Callide^NP (100 nM), and incubated for 24 hours, and then the contents of smooth actin and collagen of the cells in each well were analyzed with immunofluorescence staining.

MIA PaCa-2 cell line = assay: In vivo anti-tumor effect, mouse subcutaneous tumor model based on MIA PaCa-2; conditions: for anti-tumor effect (tumor growth): compared with saline, TP 0.3, Cal 0.3, TP/Cal 0.3/0.35, Callide^NP 0.3 mg/kg (as TP), tail vein once a week
Procedure: Experimental Material: MIA PaCa-2 Cell Line
Experimental method: establishing a mouse subcutaneous tumor model based on the MIA PaCa-2 cell line, and evaluating an inhibitory effect on tumor as well as toxic and side effect of each compound of the experimental group after administration.
Experimental process: 0.1 ml of MIA PaCa-2 cell suspension was injected into axilla of the mice, and the growth of tumor was monitored. […] Dosages of administration: TP (0.3 mg/kg), Cal (0.3 mg/kg), TP/Cal (0.3/0.35 mg/kg), Callide^NP (0.3 mg/kg, administration dosage after it was theoretically completely degraded to TP), administered via tail vein injection once a week. The tumor size was measured every two days.

[3] = test system: pancreatic stellate cells and pancreatic cancer cells co-implanted orthotopic model; type: in vivo; conditions: for tumor suppression effect: TP 0.3, Cal 0.35, TP/Cal 0.3/0.35, Callide^NP 0.6 mg/kg, once every two days, 7 times
Procedure: Experimental materials: pancreatic stellate cells, pancreatic cancer cells transfected with luciferase; nude mice: strain Blab/C nude, 6-8 weeks old.
Experimental method: suspensions of pancreatic stellate cells and luciferase-transfected pancreatic cancer cells were mixed uniformly at a ratio of 1:1, and inoculated into the pancreas at a density of 10,000 cells/40 μL with an inoculation volume of 40 μL.
Experimental process: the two kinds of cells were digested and centrifuged, resuspended with PBS and mixed at a ratio of 1:1, and then the cell mixture was mixed with Matrigel at a ratio of 1:1 and pipetted uniformly. Nude mice underwent relevant operations under the premise of review by the Ethics Committee of Tsinghua University. […], of the uniformly pipetted cell suspension was injected into the pancreas with an insulin needle, the wound was sutured, and a sedative was injected subcutaneously. About one week after the cell injection, each mouse was intraperitoneally injected with 0.1 ml of […] solution. After 10 min, the mice were anesthetized with isoflurane, and an intensity of the fluorescent signal in the pancreas of the mice was detected with a live imaging system for small animal. Subsequently, the mice were randomly divided into groups, 7 mice in each group, and TP (0.3 mg/kg), Cal (0.35 mg/kg), TP/Cal (0.3/0.35 mg/kg), and Callide^NP (0.6 mg/kg) were administrated, respectively, once every two days for a total of 7 times. After each administration, the mice were weighed. After 4 times of administration, the intensity of the fluorescent signal in the pancreas of mice was detected with the live imaging system for small animal. After the administrations were all finished, the intensity of the fluorescent signal in the pancreas of the mice was detected again with the live imaging system for small animal, while recording a survival rate of mice. After the experiment, the tumor tissues of the mice were taken, and an expression of smooth actin and collagen in the tumor tissues was detected by tissue immunofluorescence staining (the experiment results are shown in FIG. 6).

[4] = test system: pancreatic stellate cells; assay: Smooth actin and collagen in pancreatic stellate cells alone (immunofluorescence); type: cell-based, KPC mice; conditions: 24 hours, TP 10 nM, Cal 100 nM, TP/Cal 10/100 nM, Callide^NP 100 nM
Description: as §1, §2, §3
Pancreatic stellate cells alone were cultured in a 12-well plate, 100,000 cells per well, treated with TP (10 nM), Cal (100 nM), TP/Cal (10/100 nM), Callide^NP (100 nM) for 24 hours, and then contents of smooth actin and collagen of the cells in each well were analyzed with immunofluorescence staining.

[5] = Rat PK experiment of Callide^NP (chromatography-mass spectrometry); type: in vivo; conditions: SD rats, Callide^NP 0.3 and 0.6 mg/kg; for concentration of free TP in plasma / plasma half-life: TP 0.3 mg/kg
Procedure: Experimental materials: rats, strain SD, 6-9 weeks old. Analytical instruments: Agilent 1290/6460 triple quadrupole mass spectrometer, made in the United States.
Experimental Method: Chromatography-Mass Spectrometry
Experimental process: 12 SD rats were randomly divided into 4 groups, with 3 rats in each group. TP (0.3 mg/kg), TP/Cal (0.3/0.35 mg/kg), Callide^NP (0.3 mg/kg), Callide^NP (0.6 mg/kg) were administered respectively. 300 μl of blood of each rat was collected through the orbit at 5 min, 15 min, 30 min, 1 h, 2 h, 4 h, and 8 h, respectively, centrifuged at 10000 rpm at 4° C., and the supernatant plasma was collected. The plasma was extracted with ethyl acetate/water, vortexed, sonicated, centrifuged at 4° C., the supernatant was evaporated to dryness under the protection of nitrogen, and then dissolved in mobile phase acetonitrile/water. After centrifugation, the supernatant was taken and injected.

[6] = test system: humanized pancreatic cancer tissue; assay: In vivo anti-tumor effect, mouse subcutaneous tumor model of humanized pancreatic cancer tissue
Procedure: Experimental material: humanized pancreatic cancer tissue
Experimental method: establishing a mouse subcutaneous tumor model based on humanized pancreatic cancer tissue
Experimental process: a mouse subcutaneous tumor model of humanized pancreatic cancer tissue was established, TP (0.3 mg/kg) and Callide^NP (0.3 mg/kg, administration dosage after it was theoretically completely degraded to TP) were administrated via tail vein injection, once a day. One week later, the dosage of Callide^NP was increased to 0.6 mg/kg.

[7] = Toxicity experiment on mice in short- and long-term administration; conditions: mouse, in vivo
Procedure: Experimental Material: BALB/C Mice
Experimental method: BALB/C mice were divided into 5 groups, including a saline control group and four drug administration groups of TP, Cal, TP/Cal, and Callide^NP groups. 5 mice in the control group, and 5 mice for each of 3 dosages, i.e., high, medium and low dosages in each experimental group, for a total of 65 mice. Dosages of administration: TP (0.3 mg/kg, 0.6 mg/kg, 1.2 mg/kg); Cal (0.6 mg/kg, 1.2 mg/kg, 1.8 mg/kg); TP/Cal (0.6 mg/kg, 1.2 mg/kg, 1.8 mg/kg); and Callide^NP (0.6 mg/kg, 1.2 mg/kg, 1.8 mg/kg), were administered once a week via tail vein injection.

porcine liver esterase = assay: In vitro degradation experiment of Callide (HPLC); type: in vitro ADME; conditions: absence of porcine liver esterase
Procedure: Experimental materials: phosphate buffer (PBS, Ph=7.2 to 7.4), porcine liver esterase, high performance liquid chromatography (HPLC)
Experimental Method: HPLC Method
Experimental process: 5 microliters of 1 mg/ml Callide (ethanol solution for solubilizing) in 5 ml of PBS buffer with or without porcine liver esterase, and stirred at 37 degrees Celsius for 1 min, 5 min, 10 min, 30 min, 1 h, 2 h, 4 h, 8 h, 12 h, 24 h, 48 h, respectively, 200 microliters of the solution were taken, filtered, and a concentration of Callide or calcipotriol in the solution was determined by HPLC.

## C=C1/C(=C\C=C2/CCC[C@@]3(C)C2CCC3[C@@H](C)/C=C/[C@@H](O)C2CC2)C[C@@H](O)C[C@@H]1O (some centres unmarked) [Cal, calcipotriol]
[1]; within the dosage range studied (5 nM to 400 nM)
  killing effect on cancer cells: no killing effect on cancer cells
[2]
  expression levels of related proteins (smooth actin and collagen): significantly reduced
MIA PaCa-2 cell line
  anti-tumor effect (tumor growth): no anti-tumor effect
mouse, in vivo
  toxic reactions / adverse states after administration: none of the mice in the Cal group showed the above-mentioned adverse symptoms
[3]
  tumor suppression effect: no tumor suppression effect
[3]; compared with the control group
  survival rate of mice: no significant difference
[3]; live imaging, compared with the control group
  fluorescent signal of pancreatic cancer cells: no significant difference
[4]
  contents of smooth actin and collagen: decreased

## CC(C)[C@]12O[C@H]1[C@@H]1O[C@]13[C@]1(O[C@H]1C[C@H]1C4=C(CC[C@@]13C)C(=O)OC4)[C@@H]2O [TP, triptolide]
[1]; Pancreatic cancer cell, all four types of pancreatic cancer cells
  IC50: 20 nM
[2]
  expression levels of related proteins (smooth actin and collagen): did not change significantly
[5]
  concentration of free TP in plasma: high
  plasma half-life: short
MIA PaCa-2 cell line
  anti-tumor effect (tumor growth): inhibits tumor growth more effectively than Callide^NP
MIA PaCa-2 cell line; mouse, in vivo
  tumor size relative to other groups: smaller than that of the TP/Cal and Callide^NP groups
MIA PaCa-2 cell line; tumors isolated and weighed after dissection
  tumor weight: significantly less weight than the control group
1.8 mg/kg, single administration
  mortality: all mice died after a single administration
TP group
  morphology of spermatogonia and spermatocytes: severely damaged
  organs (anatomical results): different degrees of necrosis
  relative weight of the testis: significantly reduced
Especially 1.2 mg/kg of TP
  body weight: lost their weight significantly
  skin at the injection site on the tail: severe skin ulceration
high, medium and low dosages, once a week via tail vein injection
  toxic reactions / adverse states after administration: obvious toxic reactions
[3]; TP 0.3 mg/kg
  toxicity: obvious toxicity
[3]
  tumor suppression effect: insignificant tumor suppression effect
[3]; after seven administrations, TP 0.3 mg/kg
  deaths: one mouse died
[3]; mouse, in vivo
  body weight of the mice: significantly reduced
[6]; first week, 0.3 mg/kg once a day via tail vein
  inhibitory effect on tumor growth: significant inhibitory effect on tumor growth
[4]
  contents of smooth actin and collagen: not significantly different

## C=C1/C(=C\C=C2/CCC[C@@]3(C)C2CCC3[C@@H](C)/C=C/C(OC(=O)CCC(=O)O[C@@H]2[C@@]3(C(C)C)O[C@H]3[C@@H]3O[C@]34[C@]23O[C@H]3C[C@H]2C3=C(CC[C@@]24C)C(=O)OC3)C2CC2)C[C@@H](O)C[C@@H]1O (some centres unmarked) [Callide]
[1]; with 10 U porcine liver esterase
  cell killing effect: produce cell killing effect
[1]; without the addition of esterase
  toxic and side effects on cells: no toxic and side effects on cells
[5]
  average plasma residence time: prolonged
  concentration of free TP in plasma: significantly reduced
  plasma half-life: prolonged
[7]
  long-term toxicity compared with TP: significantly reduced
Porcine liver esterase; PBS, 37 degrees Celsius
  degradation of Callide: could not be degraded
Porcine liver esterase; time extended to 48 h
  concentration of Callide in the solution: remained unchanged
[6]; immunohistochemical staining
  apoptosis of tumor cells: accompanied by apoptosis of tumor cells
  fibrin content of the tumor tissue: significantly reduced
